Assay [1] can be described thus: Cytotoxicity against human OV90 cells after 72 hrs by MTS assay. The assay is classed as functional, cell-based. As to conditions: OV-90, 72 h.
The subject of the next assay is A2780. The assay can be described thus: Cytotoxicity against human A2780 cells after 72 hrs by MTS assay. As to conditions: A2780, 72 h. The assay is classed as functional, cell-based.
In another assay the test system is MCF7. Nature of the assay: Cytotoxicity against human MCF7 cells after 72 hrs by MTS assay. The assay is classed as functional, cell-based. As to conditions: MCF7, 72 h.
In the next assay the test system is MDA-MB-231. Nature of the assay: Cytotoxicity against human MDA-MB-231 cells after 72 hrs by MTS assay. As to conditions: MDA-MB-231, 72 h. It counts as functional, cell-based.
The next assay relates to A549. Nature of the assay: Cytotoxicity against human A549 cells after 72 hrs by MTS assay. It counts as functional, cell-based. As to conditions: A549, 72 h.
Assay [2] in a line: Cytotoxicity against human H1299 cells after 72 hrs by MTS assay. The assay is classed as functional, cell-based. As to conditions: NCI-H1299, 72 h.
A further assay deals with HT-29. Nature of the assay: Cytotoxicity against human HT-29 cells after 72 hrs by MTS assay. The assay is classed as functional, cell-based. As to conditions: HT-29, 72 h.
Assay [3] has as its target Ubiquitin-conjugating enzyme E2 B (Homo sapiens) (UniProt P63146). The assay can be described thus: Inhibition of human recombinant Rad6B assessed as suppression of Rad6B conjugation to ubiquitin at 25 nM pre-incubated for 1 hr by Western blot analysis.
Assay [4] has the same target. The assay can be described thus: Inhibition of human recombinant Rad6B assessed as suppression of H2A substrate ubiquitination at 25 nM pre-incubated for 1 hr before H2A addition by Western blot analysis.

This is an account of results in ChEMBL document CHEMBL3784990, “Synthesis and in vitro anticancer evaluation of some 4,6-diamino-1,3,5-triazine-2-carbohydrazides as Rad6 ubiquitin conjugating enzyme inhibitors” (Bioorg Med Chem Lett, 2016).

Calls of active or inactive are those of the source. The calls are words filed in the database; no cut-off is given here.

Ubiquitin-conjugating enzyme E2 B (Homo sapiens), sequence (P63146 whole entry): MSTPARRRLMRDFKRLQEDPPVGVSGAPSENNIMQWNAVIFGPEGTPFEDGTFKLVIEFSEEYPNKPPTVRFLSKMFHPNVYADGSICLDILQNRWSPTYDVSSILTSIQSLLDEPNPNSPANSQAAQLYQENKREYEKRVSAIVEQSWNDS

On to `COc1ccc(Nc2nc(N)nc(C(=O)NN)n2)cc1`, for which the IC50 in assay [1] came to 80 µM; in the assay on A2780, 14.7 µM; with MCF7, 6.2 µM; in the assay with MDA-MB-231 it was 7.6 µM; with A549, 5.2 µM; in [2], 65 µM. For the same compound, the IC50 in the assay on HT-29 is 5.4 µM. Further, the inhibition entry in assay [3] is “Active”.

Take `O=C(NNc1ccccc1)c1nc(Nc2ccccc2)nc(Nc2ccccc2)n1`: the IC50 in assay [1] was 8 µM; with A2780, 7.1 µM; in the assay on MCF7, 6 µM; with MDA-MB-231, 2.5 µM; with A549, 14.6 µM; in assay [2] it was 11 µM. In addition, the IC50 in the assay with HT-29 amounted to 9.5 µM. Moreover, the inhibition result in [3] and in [4] was “Active” throughout.

On to `COc1ccccc1Nc1nc(Nc2ccccc2OC)nc(C(=O)NNc2ccccc2)n1`, for which the IC50 in assay [1] was 10 µM; in the assay with A2780, 5 µM; with MCF7 it was 7.2 µM; in the assay with MDA-MB-231, 3.9 µM; in the assay with A549, 6.9 µM; in assay [2] it was 26 µM. Half-maximal inhibition with HT-29 (IC50) was put at 8.9 µM. The inhibition entry in assay [3] is “Active”.

Take `NNC(=O)c1nc(N)nc(Nc2ccc(Cl)cc2)n1`: the IC50 in assay [1] was 85 µM; in the assay on A2780 it was 36.6 µM; in the assay on MCF7, 8.8 µM; in the assay with MDA-MB-231, 24.6 µM; in the assay with A549, 7.5 µM; in assay [2], 30 µM. In the assay with HT-29, this compound came in with an IC50 of 4.6 µM. In addition, the inhibition entry in assay [3] was “Active”.

With `COc1ccc(Nc2nc(Nc3ccc(OC)cc3)nc(C(=O)NNc3ccccc3)n2)cc1`, the IC50 in assay [1] was determined as 12 µM; in the assay with A2780, 6.3 µM; in the assay on MCF7 it was 7.2 µM; with MDA-MB-231, 4.2 µM; with A549, 10.8 µM; in assay [2], 5 µM. Further, in the assay with HT-29, the IC50 was 5.8 µM. Besides, the inhibition entry in [3] and in assay [4] was “Active” each time.

`NNC(=O)c1nc(N)nc(Nc2ccccc2)n1`: the IC50 in assay [1] worked out at 75 µM; in the assay on A2780, 7.3 µM; with MCF7, 5.9 µM; in the assay with MDA-MB-231, 2.6 µM; with A549, 7.8 µM; in [2] it was 65 µM. In the assay on HT-29, this compound came in with an IC50 of 3.3 µM. The inhibition result in assay [3] is “Active”.

Regarding `COc1ccccc1Nc1nc(N)nc(C(=O)NN)n1`, the IC50 in assay [1] came out at 90 µM; in the assay on A2780, 5.6 µM; in the assay on MCF7, 11.8 µM; in the assay on MDA-MB-231 it was 15.7 µM; with A549, 7.5 µM; in [2] it was 50 µM. This compound also returned a 50% inhibitory concentration (IC50) in the assay on HT-29 of 8.6 µM. In assay [3], the inhibition entry is “Active”.

For `Cc1ccc(Nc2nc(Nc3ccc(C)cc3)nc(C(=O)NNc3ccccc3)n2)cc1`, the half-inhibitory concentration (IC50) in assay [1] was found to be 5 µM; with A2780 it was 3.6 µM; in the assay on MCF7 it was 4.2 µM; in the assay on MDA-MB-231, 3.5 µM; with A549 it was 11.6 µM; in assay [2], 22 µM. This compound returned an IC50 in the assay on HT-29 of 5.2 µM. The inhibition result in [3] and in [4] was “Active” in each case.

In the case of `Nc1nc(COC(=O)c2ccc([N+](=O)[O-])cc2)nc(Nc2ccccc2)n1`, the IC50 was 60 µM in [1]; 7.8 µM with A2780; 5 µM with MCF7; 4.6 µM in the assay with MDA-MB-231; 7.2 µM with A549; 45 µM in [2]. Also, the IC50 with HT-29 was 8.3 µM. The inhibition result in [3] and in assay [4] was “Active” throughout.

As to `O=C(NNc1ccccc1)c1nc(Nc2ccc(Cl)cc2)nc(Nc2ccc(Cl)cc2)n1`, the 50% inhibitory concentration (IC50) in assay [1] is 60 µM; in the assay with A2780 it was 8.2 µM; in the assay on MCF7, 4.2 µM; in the assay with MDA-MB-231, 3.5 µM; with A549, 7.8 µM; in assay [2], 15 µM. For the same compound, the IC50 in the assay with HT-29 came to 4.1 µM. The inhibition entry in assay [3] and in assay [4] was “Active” throughout.

With `Cc1ccc(Nc2nc(N)nc(C(=O)NN)n2)cc1`, the IC50 in assay [1] came to 60 µM; in the assay on A2780, 5.5 µM; in the assay on MCF7 it was 16 µM; in the assay on MDA-MB-231 it was 12.7 µM; in the assay on A549, 9.3 µM; in assay [2], 40 µM. The IC50 with HT-29 stood at 4.5 µM. Further, in assay [3], the inhibition entry was “Active”.
